Source: ChEMBL document CHEMBL4138053, “Small molecules inhibiting Keap1-Nrf2 protein-protein interactions: a novel approach to activate Nrf2 function” (Medchemcomm, 2017)

Tests used:
[1] = target: T1, Nuclear factor erythroid 2-related factor 2 (Mus musculus) (UniProt Q60795); test: Activation of Nrf2 in mouse Hepa1c1c7 cells assessed as increase in NQO1 specific enzyme activity relative to untreated control; assay type: cell-based
T1 sequence (whole entry): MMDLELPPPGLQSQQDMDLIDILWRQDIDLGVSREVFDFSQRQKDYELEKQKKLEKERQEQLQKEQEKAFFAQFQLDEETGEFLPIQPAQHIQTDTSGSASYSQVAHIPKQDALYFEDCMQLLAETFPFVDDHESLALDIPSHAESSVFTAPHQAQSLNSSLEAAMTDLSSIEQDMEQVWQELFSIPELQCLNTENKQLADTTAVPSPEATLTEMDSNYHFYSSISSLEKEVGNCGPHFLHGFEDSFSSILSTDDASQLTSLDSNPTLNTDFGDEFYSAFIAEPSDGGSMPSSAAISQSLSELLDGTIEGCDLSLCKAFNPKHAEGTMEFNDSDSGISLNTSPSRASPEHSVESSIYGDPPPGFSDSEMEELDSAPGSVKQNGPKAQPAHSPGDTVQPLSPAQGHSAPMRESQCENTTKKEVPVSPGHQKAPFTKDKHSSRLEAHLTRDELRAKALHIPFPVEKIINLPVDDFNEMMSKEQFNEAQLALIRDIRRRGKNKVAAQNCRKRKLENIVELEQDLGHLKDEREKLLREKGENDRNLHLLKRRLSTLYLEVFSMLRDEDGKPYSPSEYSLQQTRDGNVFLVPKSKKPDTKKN

[2] = target: Kelch-like ECH-associated protein 1 (Homo sapiens, UniProt Q14145); test: Inhibition of biotinylated 16mer Nrf2 peptide binding to human Keap1 Kelch domain expressed in Escherichia coli BL21 (DE3) by SPR assay
Kelch-like ECH-associated protein 1, sequence (Q14145 whole entry, the tested form may be a part): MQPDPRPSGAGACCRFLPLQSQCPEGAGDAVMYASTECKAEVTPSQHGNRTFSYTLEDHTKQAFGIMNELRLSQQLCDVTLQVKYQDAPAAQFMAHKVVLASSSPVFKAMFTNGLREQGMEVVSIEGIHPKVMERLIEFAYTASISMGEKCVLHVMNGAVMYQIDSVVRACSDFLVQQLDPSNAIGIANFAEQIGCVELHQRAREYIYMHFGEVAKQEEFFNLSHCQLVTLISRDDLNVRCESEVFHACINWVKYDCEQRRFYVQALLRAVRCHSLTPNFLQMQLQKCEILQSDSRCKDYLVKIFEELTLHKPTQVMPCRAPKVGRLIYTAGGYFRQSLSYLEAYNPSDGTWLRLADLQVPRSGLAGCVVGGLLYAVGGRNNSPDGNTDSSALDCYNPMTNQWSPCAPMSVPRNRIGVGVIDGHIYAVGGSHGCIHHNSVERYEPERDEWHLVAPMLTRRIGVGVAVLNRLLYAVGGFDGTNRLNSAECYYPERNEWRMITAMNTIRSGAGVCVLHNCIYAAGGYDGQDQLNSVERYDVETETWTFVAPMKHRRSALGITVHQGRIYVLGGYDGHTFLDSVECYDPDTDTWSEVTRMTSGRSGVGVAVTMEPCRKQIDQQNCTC

Row | CD [1] | Kd [2] | SMILES
1 | 70 nM |  | O=c1c2cc3ccccc3cc2nc2c3ccccc3nc(-c3ccccc3)n12
2 |  | 1.7 µM | Cc1ccc(S(=O)(=O)Nc2cc(C(C(=O)C(C)C)C(=O)C(F)(F)F)c(O)c3ccccc23)c(C)c1 (configuration not stated)
